Data reported in ChEMBL document CHEMBL1201862, “PubChem BioAssay data set” (2004).
Calls of active or inactive are those of the source. Cut-off read from the data, not from the text of the source: actives have a measured IC50 and inactives only a lower limit.

Target: Envelope glycoprotein gp160 (Human immunodeficiency virus 1, UniProt Q6QLK5)
Assay: inhibitors of HIV fusion peptide binding, primary screen, biochemical, uHTS, fluorescence dequenching (AID 1986)

Chain of Envelope glycoprotein gp160 (Q6QLK5 whole entry, the tested form may be a part): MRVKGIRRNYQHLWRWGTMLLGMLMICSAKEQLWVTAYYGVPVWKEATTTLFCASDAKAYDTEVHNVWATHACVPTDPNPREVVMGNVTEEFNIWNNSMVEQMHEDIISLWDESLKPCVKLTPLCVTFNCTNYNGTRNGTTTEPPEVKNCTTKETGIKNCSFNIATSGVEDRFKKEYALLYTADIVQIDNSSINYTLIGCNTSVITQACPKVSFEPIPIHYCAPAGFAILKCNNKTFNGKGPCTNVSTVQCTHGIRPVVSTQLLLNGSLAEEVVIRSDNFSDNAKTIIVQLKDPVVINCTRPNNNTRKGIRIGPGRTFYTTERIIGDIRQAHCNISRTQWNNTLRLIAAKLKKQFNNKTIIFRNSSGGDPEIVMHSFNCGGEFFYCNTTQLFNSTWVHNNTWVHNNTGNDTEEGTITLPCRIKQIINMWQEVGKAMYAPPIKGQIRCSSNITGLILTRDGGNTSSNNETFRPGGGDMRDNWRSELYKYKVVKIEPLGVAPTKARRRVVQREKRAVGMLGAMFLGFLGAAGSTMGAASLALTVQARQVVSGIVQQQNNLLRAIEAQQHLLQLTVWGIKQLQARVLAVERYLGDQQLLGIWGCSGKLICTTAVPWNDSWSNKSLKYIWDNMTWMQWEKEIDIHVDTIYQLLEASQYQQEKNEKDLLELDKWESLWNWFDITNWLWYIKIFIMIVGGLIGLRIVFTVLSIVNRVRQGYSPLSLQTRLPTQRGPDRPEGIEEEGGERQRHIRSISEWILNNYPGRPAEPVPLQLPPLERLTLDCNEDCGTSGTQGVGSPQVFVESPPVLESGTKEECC

**Q.** COC(=O)c1sc(-c2ccc(C(C)(C)C)cc2)cc1NC(=O)CSCC(=O)O was tested. Which IC50 did it give?
**A.** 15.4 µM (active)

**Q.** For O=C(CCN1C(=O)/C(=C/c2ccccc2Cl)SC1=S)Nc1ccccc1C(=O)O, which IC50 is on record?
**A.** 19.4 µM (active)

**Q.** For COc1cc(/C=C2\C(=N)N3N=C(S(C)(=O)=O)SC3=NC2=O)cc(OC)c1OCCOc1ccc(C)cc1, which IC50 is on record?
**A.** 11 µM (active)
